Laboratory results from patent US6706663B2, “Herbicidal 3-heterocyclic substituted benzisothiazole and benzisoxazole compounds” (Wyeth, priority 2000, dated 2004).

Columns and labels:
ORYSAT (Rice, Tebonnet) [1] = experiment: Preemergence herbicidal evaluation; format: in vivo, Oryza sativa, (L.) Tebonnet; settings: preemergence, rated 4-5 weeks after treatment
GLXMA (Soybean) = experiment: Preemergence herbicidal evaluation; format: in vivo, Glycine max, (L.) Merr.; settings: preemergence, rated 4-5 weeks after treatment
SETVI (Setaria viridis) = experiment: Preemergence herbicidal evaluation; format: in vivo, (L.) Beau; settings: preemergence, rated 4-5 weeks after treatment
How it was run: (§1)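 Visual 0–9 rating versus control (stand, vigor, malformation, size, chlorosis, overall appearance), scored four to five weeks post-treatment. Preemergence spray of aqueous acetone solution onto freshly seeded soil cups; plants grown under conventional greenhouse care.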

[2] = system: ECHCG (Echinochloa crus-galli); experiment: Preemergence herbicidal evaluation; format: in vivo, (L.) Beau; settings: preemergence, rated 4-5 weeks after treatment
How it was run: as §1

[3] = system: CASOB (Cassia obtusifolia); experiment: Postemergence herbicidal evaluation; format: in vivo, L.; settings: postemergence
How it was run: (§2)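 Seedlings grown about two weeks in flats, sprayed, then kept under standard greenhouse care. Rated visually 4–5 weeks after treatment on a 0–9 scale (stand, vigour, malformation, size, chlorosis, overall appearance) relative to untreated control; repeat tests averaged.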

[4] = system: CHEAL (Chenopodium album); experiment: Postemergence herbicidal evaluation; format: in vivo, L.; settings: postemergence
How it was run: as §2

[5] = system: AMBEL (Ambrosia artemisifolia); experiment: Postemergence herbicidal evaluation; format: in vivo, L.; settings: postemergence
How it was run: as §2

ZEAMX (Corn, Field) = experiment: Postemergence herbicidal evaluation; format: in vivo, Zea mays, L.; settings: postemergence
How it was run: as §2

GALAP (Galium aparine) [6] = experiment: Postemergence herbicidal evaluation; format: in vivo; settings: postemergence
How it was run: as §2

[7] = system: GLXMAW (Soybean, Williams); experiment: Postemergence herbicidal evaluation; format: in vivo, Glycine max, (L.) Merr. cv Williams; settings: postemergence
How it was run: as §2

ORYSAT (Rice, Tebonnet) [8] = experiment: Postemergence herbicidal evaluation; format: in vivo, Oryza sativa, (L.) Tebonnet; settings: postemergence
How it was run: as §2

[9] = system: ABUTH (Abutilon theophrasti); experiment: Postemergence herbicidal evaluation; format: in vivo, Medic.; settings: postemergence
How it was run: as §2

[10] = system: IPOHE (Ipomoea hederacea); experiment: Postemergence herbicidal evaluation; format: in vivo, (L.) Jacq.; settings: postemergence
How it was run: as §2

GALAP (Galium aparine) [11] = experiment: Preemergence herbicidal evaluation; format: in vivo; settings: preemergence, rated 4-5 weeks after treatment
How it was run: as §1

Compound	Preemergence herbicidal rating ORYSAT (ORYSAT (Rice, Tebonnet) [1]; rate 0.0620 kg/ha)	Preemergence herbicidal rating ORYSAT (ORYSAT (Rice, Tebonnet) [1]; rate 0.1250 kg/ha)	Preemergence herbicidal rating ORYSAT (ORYSAT (Rice, Tebonnet) [1]; rate 0.2500 kg/ha)	Preemergence herbicidal rating GLXMA (GLXMA (Soybean); rate 0.0620 kg/ha)	Preemergence herbicidal rating GLXMA (GLXMA (Soybean); rate 0.1250 kg/ha)	Preemergence herbicidal rating GLXMA (GLXMA (Soybean); rate 0.2500 kg/ha)	Preemergence herbicidal rating SETVI (SETVI (Setaria viridis); rate 0.0620 kg/ha)	Preemergence herbicidal rating SETVI (SETVI (Setaria viridis); rate 0.1250 kg/ha)	Preemergence herbicidal rating SETVI (SETVI (Setaria viridis); rate 0.2500 kg/ha)	Preemergence herbicidal rating ECHCG ([2]; rate 0.0620 kg/ha)	Preemergence herbicidal rating ECHCG ([2]; rate 0.1250 kg/ha)	Preemergence herbicidal rating ECHCG ([2]; rate 0.2500 kg/ha)	CASOB herbicidal rating ([3]; rate 0.0320 kg/ha)	CASOB herbicidal rating ([3]; rate 0.0620 kg/ha)	CHEAL herbicidal rating ([4]; rate 0.0320 kg/ha)	CHEAL herbicidal rating ([4]; rate 0.0620 kg/ha)	AMBEL herbicidal rating ([5]; rate 0.0320 kg/ha)	AMBEL herbicidal rating ([5]; rate 0.0620 kg/ha)	ZEAMX herbicidal rating (ZEAMX (Corn, Field); rate 0.0320 kg/ha)	ZEAMX herbicidal rating (ZEAMX (Corn, Field); rate 0.0620 kg/ha)	also measured
Cn1c(C(F)(F)F)cc(=O)n(-c2ccc3snc(C4OCC(CS(C)(=O)=O)O4)c3c2)c1=O (single isomer, unassigned) [Compound 86, 1-methyl-3-[3-[4-[(methylsulfonyl)methyl]-1,3-dioxolan-2-yl]-1,2-benzisothiazol-5-yl]-6-(trifluoromethyl)uracil]	5.0	7.0	9.0	5.0	9.0	9.0	7.5	9.0	9.0	7.5	9.0	9.0	7.0	9.0	9.0	9.0	9.0	9.0	4.0	4.0	GALAP herbicidal rating (GALAP (Galium aparine) [6]; rate 0.0320 kg/ha): 9.0; GALAP herbicidal rating (GALAP (Galium aparine) [6]; rate 0.0620 kg/ha): 9.0; GLXMAW herbicidal rating ([7]; rate 0.0320 kg/ha): 9.0; GLXMAW herbicidal rating ([7]; rate 0.0620 kg/ha): 9.0; ORYSAT herbicidal rating (ORYSAT (Rice, Tebonnet) [8]; rate 0.0320 kg/ha): 4.0; ORYSAT herbicidal rating (ORYSAT (Rice, Tebonnet) [8]; rate 0.0620 kg/ha): 5.5; ABUTH herbicidal rating ([9]; rate 0.0320 kg/ha): 9.0; ABUTH herbicidal rating ([9]; rate 0.0620 kg/ha): 9.0; IPOHE herbicidal rating ([10]; rate 0.0320 kg/ha): 9.0; IPOHE herbicidal rating ([10]; rate 0.0620 kg/ha): 9.0; Preemergence herbicidal rating GALAP (GALAP (Galium aparine) [11]; rate 0.0620 kg/ha): 3.0; Preemergence herbicidal rating GALAP (GALAP (Galium aparine) [11]; rate 0.1250 kg/ha): 4.0; Preemergence herbicidal rating GALAP (GALAP (Galium aparine) [11]; rate 0.2500 kg/ha): 9.0
Cn1c(C(F)(F)F)cc(=O)n(-c2ccc3snc(C4OCC(CS(C)(=O)=O)O4)c3c2)c1=O (single isomer, unassigned) [Compound 87, 1-methyl-3-[3-[4-[(methylsulfonyl)methyl]-1,3-dioxolan-2-yl]-1,2-benzisothiazol-5-yl]-6-(trifluoromethyl)uracil]	2.0	3.0	5.0	9.0	9.0	9.0	6.0	8.0	9.0	5.5	6.5	9.0	9.0	9.0	9.0	9.0	9.0	9.0	3.5	3.5	GALAP herbicidal rating (GALAP (Galium aparine) [6]; rate 0.0320 kg/ha): 9.0; GALAP herbicidal rating (GALAP (Galium aparine) [6]; rate 0.0620 kg/ha): 9.0; GLXMAW herbicidal rating ([7]; rate 0.0320 kg/ha): 9.0; GLXMAW herbicidal rating ([7]; rate 0.0620 kg/ha): 8.5; ORYSAT herbicidal rating (ORYSAT (Rice, Tebonnet) [8]; rate 0.0320 kg/ha): 3.0; ORYSAT herbicidal rating (ORYSAT (Rice, Tebonnet) [8]; rate 0.0620 kg/ha): 3.5; ABUTH herbicidal rating ([9]; rate 0.0320 kg/ha): 9.0; ABUTH herbicidal rating ([9]; rate 0.0620 kg/ha): 9.0; IPOHE herbicidal rating ([10]; rate 0.0320 kg/ha): 9.0; IPOHE herbicidal rating ([10]; rate 0.0620 kg/ha): 9.0; Preemergence herbicidal rating GALAP (GALAP (Galium aparine) [11]; rate 0.0620 kg/ha): 6.0; Preemergence herbicidal rating GALAP (GALAP (Galium aparine) [11]; rate 0.1250 kg/ha): 9.0; Preemergence herbicidal rating GALAP (GALAP (Galium aparine) [11]; rate 0.2500 kg/ha): 9.0
Cn1c(C(F)(F)F)cc(=O)n(-c2ccc3snc(C4OCC(C[S+](C)[O-])O4)c3c2)c1=O (stereo not drawn) [Compound 88, 1-methyl-3-[3-[4-[(methylsulfinyl)methyl]-1,3-dioxolan-2-yl]-1,2-benzisothiazol-5-yl]-6-(trifluoromethyl)uracil]	4.0	5.0	8.0	9.0	9.0	9.0	5.5	9.0	9.0	5.5	6.5	9.0	5.0	9.0	9.0	9.0	9.0	9.0	4.0	5.0	GALAP herbicidal rating (GALAP (Galium aparine) [6]; rate 0.0320 kg/ha): 9.0; GALAP herbicidal rating (GALAP (Galium aparine) [6]; rate 0.0620 kg/ha): 9.0; GLXMAW herbicidal rating ([7]; rate 0.0320 kg/ha): 9.0; GLXMAW herbicidal rating ([7]; rate 0.0620 kg/ha): 9.0; ORYSAT herbicidal rating (ORYSAT (Rice, Tebonnet) [8]; rate 0.0320 kg/ha): 4.0; ORYSAT herbicidal rating (ORYSAT (Rice, Tebonnet) [8]; rate 0.0620 kg/ha): 4.0; ABUTH herbicidal rating ([9]; rate 0.0320 kg/ha): 9.0; ABUTH herbicidal rating ([9]; rate 0.0620 kg/ha): 9.0; IPOHE herbicidal rating ([10]; rate 0.0320 kg/ha): 9.0; IPOHE herbicidal rating ([10]; rate 0.0620 kg/ha): 9.0; Preemergence herbicidal rating GALAP (GALAP (Galium aparine) [11]; rate 0.0620 kg/ha): 7.0; Preemergence herbicidal rating GALAP (GALAP (Galium aparine) [11]; rate 0.1250 kg/ha): 9.0; Preemergence herbicidal rating GALAP (GALAP (Galium aparine) [11]; rate 0.2500 kg/ha): 9.0
